Experimental data from US20080221052A1, “Modulation of Wrn-Mediated Telomere-Initiated Cell Signaling” (priority 2004, published 2008).
{P} = phosphate

How the values were obtained:
S91 mouse melanoma cells = experiment: Melanin content of S91 mouse melanoma cells; assay type: cell-based; settings: 6 days
Method: FIG. 4 is a bar graph showing the melanin content (in pg/cell) of cells treated with diluent, pTpT or pTspT.
FIG. 5 is a bar graph showing the melanin content (in pg/cell) of cells treated with diluent, 11 mer-1 or 11 mer-1-S.
Cultures of S91 mouse melanoma cells (100,000 cells/38 cm^2) were treated with 100 μM pTpT or phosphorothioate pTpT (pTspT) (FIG. 4) or 40 μM 11 mer-1 or the phosphorothioate 11 mer-1 (11 mer-1-S) (FIG. 5) for 6 days and were then collected, counted and assayed for melanin content.

DNA-PKCS = experiment: Western blot with antibody against ATM phosphoserine 1981 in normal newborn fibroblasts; assay type: cell-based; settings: 40 μM, 4-48 hours
Method: The positions of ATM and DNA-PKCS are indicated. Sham and irradiated (10 Gy IR) fibroblasts were included as controls.
Normal newborn fibroblasts were treated with 40 μM T-oligo or an equal volume of diluent for 4, 6, 8, 16, 24 or 48 hours then collected and analyzed by Western blot using an antibody against ATM phosphoserine 1981. […] The phosphorylated protein was shown in subsequent experiments to co-migrate with the catalytic subunit of ATM-related DNA-dependent protein kinase (DNA-PKCS), which would reasonably be expected to bind an antibody raised against the highly homologous ATM protein.

p53 serine 37 = experiment: Western analysis of p53 phosphorylated on serine 37 in newborn fibroblasts; assay type: cell-based; settings: 40 μM
[1] = system: p53, E2F1 transcription factor; experiment: Western analysis of p53 and E2F1 in Jurkat cells; assay type: cell-based, human; settings: by 24 hours after addition
[2] = system: keratinocyte cell line (SSC12F); experiment: S-phase arrest by FACS in keratinocyte cell line; assay type: cell-based; settings: 48 hours, 11 mer-1 alone (10 μM per FIG. 3B); diluent control 26%
Method: FIGS. 3A-3G are profiles showing the results of fluorescence activated cell sorting, for the following additions to the cells: FIG. 3A, diluent; FIG. 3B, 10 μM 11 mer-1; FIG. 3C, 10 μM 11 mer-1 and 1 μM 11 mer-1-S; FIG. 3D, 10 μM 11 mer-1 and 5 μM 11 mer-1-S; FIG. 3E, 10 μM 11 mer-1 and 10 μM 11 mer-1-S; FIG. 3F, 20 μM 1 mer-1-S; FIG. 3G, 10 μM 11 mer-1-S.
Forty-three percent of the cells were in the S phase, compared to 26% of the control, diluent-treated cells.

WRN = target: T1, WRN (Homo sapiens, UniProt Q14191); experiment: WRN siRNA knock-down and T-oligo response, western blot in normal neonatal fibroblasts; assay type: cell-based; settings: 40 μM T-oligo, 24 or 48 hours, WRN siRNA-treated cells
T1 construct: endogenous in cells; host or cells: normal neonatal fibroblasts
Method: Protein level of WRN on the day of T-oligo treatment is indicated at “0 Hrs”. T-oligo (40 μM, T) or diluent (D) were added and cells collected after 24 or 48 hours for western analysis. Control fibroblasts were either sham (IR, −) or irradiated with 10 Gy IR (IR, +) and collected after one hour. The western blot was probed with antibodies, recognizing WRN, p53 phosphoserine 15 or phospho H2AX.
Normal neonatal fibroblasts were treated on 2 consecutive days with 50 ρmol of WRN siRNA or […] of siRNA directed against the control green fluorescent protein (GFP). One day after the second siRNA treatment, representative cultures were collected for western blot analysis to assess the effectiveness of the WRN siRNA in eliminating the protein. Also at this time, duplicate cultures of WRN siRNA-treated or GFP siRNA-treated cultures were given either 40 μM T-oligo (11 mer-1; SEQ ID NO: 2) or an equal amount of diluent. Cells from all conditions were collected one or two days after the addition of T-oligo or diluent and were analyzed by western blot for p53 phosphorylation on serine 15 and phosphorylation of histone H2AX, both well-documented DNA damage responses (Lambert et al., 1998, J Biol Chem 273, 33048-53; Burma et al., 2001, J Biol Chem 276, 42462-7). Also as controls, cell lysates from cells sham-irradiated or irradiated with 10 Gy ionizing radiation (1R) were included. […]

Jurkat cells = experiment: FACS analysis of propidium iodide stained Jurkat cells (S phase, sub-G0/G1 apoptosis); assay type: cell-based, human
Method: FIGS. 1A-1H show FACS analysis of propidium iodide stained Jurkat cells (immortalized T lymphocytes), treated with diluent (FIGS. 1A and 1E); 40 μM 11 mer-1 pGTTAGGGTTAG (SEQ ID NO: 2) (FIGS. 1B and 1F); 40 μM 11 mer-2 pCTAACCCTAAC (SEQ ID NO: 3) (FIGS. 1C and 11G); 40 μM 11 mer-3 pGATCGATCGAT (SEQ ID NO: 4) (FIGS. 1D and 1H). Jurkat cells were treated with the stated reagents for 48 hours before analysis (FIG. 1A-1D) or 72 hours (FIGS. 1E-1H).
FIGS. 2A-2F are profiles showing the results of fluorescence activated cell sorting, for the following additions to the cells: FIG. 2A, diluent; FIG. 2B, 0.4 μM 11 mer-1; FIG. 2C, 0.4 μM 11 mer-1-S; FIG. 2D, diluent; FIG. 2E, 40 μM 11 mer-1; FIG. 2F, 40 μM 11 mer-1-S.
Oligonucleotides homologous to the telomere overhang repeat sequence (TTAGGG; SEQ ID NO: 1), sequence (11 mer-1: pGTTAGGGTTAG; SEQ ID NO: 2), complementary to this sequence (11 mer-2: pCTAACCCTAAC; SEQ ID NO: 3) and unrelated to the telomere sequence (11 mer-3: pGATCGATCGAT; SEQ ID NO: 4) were added to cultures of Jurkat cells, a line of human T cells reported to undergo apoptosis in response to telomere disruption. Within 48 hours, 50% of the cells treated with 40 μM of SEQ ID NO: 2 had accumulated in the S phase, compared to 25-30% for control cells (p<0.0003, non-paired t-test; see FIGS. 1A-1D), and by 72 hours, 13% of these cells were apoptotic as determined by a sub-G0/G1 DNA content, compared to 2-3% of controls (p<0.007, non-paired t-test; see FIGS. 1E-1H). At 96 hours, 20±3% of the 11 mer-1 treated cells were apoptotic compared with 3-5% of controls (p<0.0001, non-paired t-test). To exclude preferential uptake of the 11 mer-1 as an explanation of its singular effects, Jurkat cells were treated with oligonucleotides labeled on the 3′ end with fluorescein phosphoramidite, then subjected to confocal microscopy and FACS analysis. The fluorescence intensity of the cells was the same after all treatments at 4 hours and 24 hours.
Cultures of Jurkat human T cells were treated with either diluent, 11 mer-1 (SEQ ID NO: 1) or the phosphorothioate 11 mer-1 (11 mer-1-S) for 96 hours, then collected and processed for FACS analysis. Two concentrations of the oligonucleotides were tested, 0.4 μM (FIGS. 2A-2C) and 40 μM (FIGS. 2D-2F).

S91 cells = experiment: UV-induced melanogenesis in S91 cells (melanin content, OD 475 nm); assay type: cell-based, mouse; settings: 100 μM, one week
Text: FIG. 6 is a bar graph showing the melanin content (in pg/cell) of cells that have been sham-treated (no irradiation, no oligonucleotides), or treated with ultraviolet light (UV), or unirradiated but given pTspT, or irradiated with UV and given pTspT.
Duplicate cultures of S91 cells (100,000 cells/39 cm^2) were either sham-irradiated or irradiated with 5 mJ/cm^2 solar-simulated light from a 1 kW xenon arc solar-simulator (XMN 1000-21, Optical Radiation, Azuza, Calif.) metered at 285 5 nm using a research radiometer (model IL1700A, International Light, Newburyport, Mass.). Two sham-irradiated plates were then supplemented with 100 μM pTspT and two irradiated cultures were similarly treated with pTspT. After one week, cells were collected, counted and analyzed for melanin content by dissolving the cell pellets in 1 N NaOH and measuring the optical density at 475 nm. […] However, this response was blocked by the addition of pTspT (FIG. 6). In addition, the constitutive pigmentation of these cells was reduced by the pTspT in the sham-irradiated cultures, similar to the data presented in FIGS. 4 and 5.

T1 sequence (Q14191 whole entry): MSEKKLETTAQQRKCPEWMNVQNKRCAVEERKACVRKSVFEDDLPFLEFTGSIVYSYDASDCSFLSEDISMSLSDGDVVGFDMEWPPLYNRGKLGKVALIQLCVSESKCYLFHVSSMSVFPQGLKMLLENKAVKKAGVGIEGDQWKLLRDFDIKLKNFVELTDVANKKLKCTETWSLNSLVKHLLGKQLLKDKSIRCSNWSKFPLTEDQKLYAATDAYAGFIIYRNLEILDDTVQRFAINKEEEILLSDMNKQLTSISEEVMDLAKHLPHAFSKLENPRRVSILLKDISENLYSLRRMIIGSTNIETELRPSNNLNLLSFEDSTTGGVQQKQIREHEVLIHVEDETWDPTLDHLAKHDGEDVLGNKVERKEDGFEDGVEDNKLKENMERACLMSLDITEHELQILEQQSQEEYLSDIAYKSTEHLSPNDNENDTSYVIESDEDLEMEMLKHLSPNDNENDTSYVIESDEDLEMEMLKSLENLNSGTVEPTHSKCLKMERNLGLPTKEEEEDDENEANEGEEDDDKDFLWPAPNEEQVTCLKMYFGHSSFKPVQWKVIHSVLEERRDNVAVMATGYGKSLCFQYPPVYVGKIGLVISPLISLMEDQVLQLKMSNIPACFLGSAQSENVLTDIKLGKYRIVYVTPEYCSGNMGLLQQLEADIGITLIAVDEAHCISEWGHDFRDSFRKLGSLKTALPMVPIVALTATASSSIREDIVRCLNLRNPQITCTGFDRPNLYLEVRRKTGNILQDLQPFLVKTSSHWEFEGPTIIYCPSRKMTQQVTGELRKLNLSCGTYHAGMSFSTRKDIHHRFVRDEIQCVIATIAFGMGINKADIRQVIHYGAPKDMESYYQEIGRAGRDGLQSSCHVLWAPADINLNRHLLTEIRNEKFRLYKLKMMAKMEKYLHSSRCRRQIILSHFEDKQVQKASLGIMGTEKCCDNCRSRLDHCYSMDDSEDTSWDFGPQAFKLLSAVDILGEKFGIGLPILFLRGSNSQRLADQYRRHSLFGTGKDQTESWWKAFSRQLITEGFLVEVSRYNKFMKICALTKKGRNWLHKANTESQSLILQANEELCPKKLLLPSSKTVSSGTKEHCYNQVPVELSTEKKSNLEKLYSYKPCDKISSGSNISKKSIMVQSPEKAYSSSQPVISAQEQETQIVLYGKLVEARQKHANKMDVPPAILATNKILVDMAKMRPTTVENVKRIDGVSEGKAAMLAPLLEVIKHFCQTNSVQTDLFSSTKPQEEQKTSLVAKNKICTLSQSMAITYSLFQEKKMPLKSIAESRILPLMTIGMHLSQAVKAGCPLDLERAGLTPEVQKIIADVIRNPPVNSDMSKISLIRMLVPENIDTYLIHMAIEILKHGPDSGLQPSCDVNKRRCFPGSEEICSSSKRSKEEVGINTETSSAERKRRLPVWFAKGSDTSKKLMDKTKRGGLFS

Row | Substance | stimulation of melanogenesis (melanin content) (S91 mouse melanoma cells; 100 μM) | phosphorylation of 450 kDa protein (DNA-PKCS) (DNA-PKCS) | phosphorylation of p53 serine 37 (p53 serine 37) | level of the E2F1 transcription factor [1] | p53 level [1] | cells in the S phase [2] | ability to induce phosphorylation of H2AX after WRN knock-down (WRN) | ability to induce phosphorylation of p53 (serine 15) after WRN knock-down (WRN) | effect on exponentially growing cell cycle profile (Jurkat cells; 0.4 μM, 96 hours) | apoptotic cells (sub-G0/G1 DNA content) (Jurkat cells; 40 μM, 72 hours, controls 2-3%) [%] | apoptosis (sub-G0/G1 peak) (Jurkat cells; 40 μM, 96 hours) | cells accumulated in the S phase (Jurkat cells; 40 μM, within 48 hours, control cells 25-30%) [%] | apoptotic cells (Jurkat cells; 96 hours, controls 3-5%) [%] | stimulation of melanogenesis (melanin content) (S91 mouse melanoma cells; 40 μM) | UV-induced doubling of melanin content (S91 cells; 5 mJ/cm^2 solar-simulated light) | constitutive pigmentation (S91 cells; sham-irradiated cultures) | constitutive pigmentation (S91 mouse melanoma cells; 100 μM)
1 | pTpT | stimulated melanogenesis |  |  |  |  |  |  |  |  |  |  |  |  |  |  |  | 
2 | pGTTAGGGTTAG (DNA, 5' {P}, backbone not given here) [11 mer-1] |  | leads to phosphorylation | phosphorylated | concomitant increase | increase | Forty-three | dramatically reduced | dramatically reduced | neither of the oligonucleotides affected | 13 | induced extensive apoptosis | 50 | 20±3 | stimulated melanogenesis |  |  | 
3 | pTspT | did not |  |  |  |  |  |  |  |  |  |  |  |  |  | blocked | reduced | reduced the constitutive pigmentation
